According to patent US10280179B2, “Spiroquinoxaline derivatives as inhibitors of non-apoptotic regulated cell-death” (Helmholtz Zentrum Munchen—Deutches Forschungszentrum Fur …, priority 2013, dated 2019):
Like-named read-outs stand apart in the source and are kept apart here.

Legend:
Assay type in all cases: cell-based
[1] = test system: mouse hippocampal cell line (Ht22); assay: Inhibition of glutamate-induced non-apoptotic cell death (Example B.2); settings: HT-22, Ht22 cells
Text: Inhibition of Glutamate-Induced Non-Apoptotic Cell Death by Compounds of the Present Invention
Glutamate toxicity is conferred on cells from the mouse hippocampal cell line (Ht22) by inhibition of the cysteine/glutamate antiporter, System xc-, leading to impaired cysteine uptake and subsequent GSH depletion. This model is frequently used for mimicking glutathione depletion following oxidative stress in stroke, brain trauma and other neurodegenerative diseases and cellular conditions following ischemia (for example: van Leyen et al, J. Neurochem. 92:824-30 (2005)).
Compounds disclosed herein were evaluated for their ability to promote cell survival upon administration of a lethal dose of glutamate (GLU) to the cell-culture medium.
Briefly, Ht22 cells (ATCC) were propagated DMEM supplemented with 10% FBS/1% Penicillin-Streptomycin, and then seeded onto 96-well plates at a concentration of 2,000 cells/well in 100 μL of MEDIA, simultaneously with glutamate (Sigma Aldrich) to a final concentration of 5 mM, together with increasing concentrations of the compound to be tested (0.5 pM to 100 μM), and the plates incubated at 37° C./5% CO2 for 72 hours. Compound dilutions were prepared from 10 mM stocks dissolved in DMSO and diluted in media. Cells treated with glutamate alone were used as negative control and alpha-tocopherol (Sigma Aldrich) was used as positive control. Compound concentrations were tested in triplicate. After incubation, cell survival was detected and quantified as described in Example B.1.

[2] = Cellular toxicity, same assay as Example B.4 without TAM (Example B.5); settings: mouse; Pfa1 cells without TAM; read-out: TC50 (the source's name)
Text: Cellular Toxicity of Compounds of the Invention
An estimate of the toxicity for compounds of the invention was obtained by using the same assay as described in Example B.4, but without the addition of TAM. […] Such TC50 values obtained for certain compounds disclosed herein, together with an approximate therapeutic window (estimated by dividing each TC50 by the corresponding IC50 determined from example B.4) are shown in Table 3.

[3] = test system: Pfa1 cells; assay: Inhibition of non-apoptotic cell death after tamoxifen-induced GPx4 knockout in a recombinant cell line (Example B.4); settings: Mus musculus, read-out: Pfa1/TAM IC50
Text: Inhibition of Non-Apoptotic Cell-Death by Compounds Disclosed Herein Using a Recombinant Cell Line
To combat high intracellular ROS levels, mammalian cells have evolved an intricate network of ROS scavenging in cells, in which the thioredoxin and glutathione (GSH) dependent systems prevail. […] Knockout of GPx4 in neurons causes massive neurodegeneration in cortical, cerebellar and hippocampal neurons underscoring the high relevance of ROS-induced cell death signaling in the brain. Briefly, immortalised fibroblasts from these mice were made to contain tamoxifen-inducible CreERT2, which catalyzes the functional ablation of both copies of GPx4 and resulting in a complete knockout of GPx4, a massive ROS burst, and cell death in cell culture. These cells (Pfa1 cells) were used to characterize compounds of the present invention, whereby tamoxifen (TAM) was given on day 0 along with the compound under test, and 72 hours later cell survival was evaluated using AlamarBlue.

[4] = test system: human neuroblastoma cell line SH-SY5Y; assay: Inhibition of BSO-induced non-apoptotic cell death (Example B.1); settings: SH-SY5Y cells, 72 hours
Text: Inhibition of BSO-Induced Non-Apoptotic Cell Death by Compounds Disclosed Herein
L-Buthionine sulfoximine (BSO) is a well-known glutathione (GSH) depletory, which inhibits gamma-glutamyl-cysteine-synthetase, the enzyme catalyzing the rate-limiting step in GSH biosynthesis. The human neuroblastoma cell line SH-SY5Y is sensitive to BSO-induced intracellular glutathione depletion, which causes high levels of reactive oxygen species (ROS) and cellular stress mimicking cellular conditions following ischemia (cf., e.g., Yamada et al., Neurochem. Int. 59:1003-9 (2011)).
Compounds disclosed herein were evaluated for their ability to promote cell survival upon administration of a lethal dose of BSO to cell-culture medium. Briefly, SH-SY5Y cells (ATCC® CRL-2266™) were propagated in DMEM supplemented with 10% FBS/1% Penicillin-Streptomycin, and then seeded onto 96-well plates at a concentration of 750 cells/well in 100 μL of media, to which BSO (Sigma Aldrich) was added (to a final concentration of 50 μM) together with increasing concentrations of the compound to be tested, and the plates incubated at 37° C./5% CO2 for 72 hours. Compound dilutions (0.5 pM to 100 μM) were prepared from 10 mM stocks dissolved in DMSO and diluted in media. Cells treated with BSO alone were used as negative control and alpha-Tocopherol (Sigma Aldrich) was used as positive control. Compound concentrations were tested in triplicate. After incubation, cell survival was detected using the live/dead cell assay AquaBluer™ (MultiTarget Pharmaceuticals) and quantified using a fluorescence plate reader (excitation filter: 530-560 nm/emission filter: 590 nm) (SpectraMax M4; Molecular Devices). Fluorescence data so obtained was normalised to the percentage of surviving cells and IC50 values calculated using the GraphPad Prism (GraphPad Software, Inc) software package.

[5] = glutamate-induced cell death, read-out: Ht22/GLU
[6] = 50 μM BSO, read-out: SH-SY5Y/BSO IC50

Compound	IC50 [1, 5] [nM]	CC50 [2] [nM]	IC50 [3] [nM]	IC50 [4, 6] [nM]	IC50 ([1]; glutamate 5 mM, 72 hours, cell survival, read-out: Ht22/GLU (Example B.2) IC50) [nM]	IC50 ([4]; BSO 50 μM, cell survival (AquaBluer), read-out: SH-SY5Y/BSO (Example B.1) IC50) [nM]
c1ccc(CNC2=Nc3ccccc3NC23CCCCCC3)cc1 [C-214]	< 1000	10000 to 20000	< 500	< 500		
c1ccc(CNC2=Nc3ccccc3NC23CCCCC3)cc1 [C-215]	< 1000	20000 to 50000	< 1000	< 200		
Clc1cccc(CNC2=Nc3ccccc3NC23CCCCCC3)c1 [C-216]	< 500	10000 to 20000	< 100	< 50		
Clc1cc2c(cc1Cl)NC1(CCCCC1)C(NCc1ccccc1)=N2 [C-217]	< 200	20000 to 50000	< 50	< 50		
c1ccc(CNC2=Nc3cc4c(cc3NC23CCCCC3)OCCO4)cc1 [C-223]	< 1000	20000 to 50000	< 200	< 500		
Clc1cccc(CNC2=Nc3cc4c(cc3NC23CCCCC3)OCCO4)c1 [C-227]	< 1000	20000 to 50000	< 50	< 500		
Clc1ccc(CNC2=Nc3ccccc3NC23CCCCC3)cc1Cl [C-228]	< 500	20000 to 50000	< 50	< 50		
CC(=O)NC1CCC2(CC1)Nc1ccccc1N=C2NCc1ccccc1 (centres unmarked) [C-249]	< 5000	50000 to 100000	< 5000	< 1000		
CC1CCC2(CC1)Nc1ccccc1N=C2NCc1ccccc1 (centres unmarked) [C-252]	< 1000	10000 to 20000	< 1000	< 200		
CC1(C)CCC2(CC1)Nc1ccccc1N=C2NCc1ccccc1 [C-253]	< 1000	10000 to 20000	< 1000	< 100		
FC(F)(F)c1cccc2c1N=C(NCc1ccccc1)C1(CCCCC1)N2 [C-254]	< 500	5000 to 10000	< 500	< 50		
Cc1cc2c(cc1C)NC1(CCCCCC1)C(NCc1cccc(Cl)c1)=N2 [C-255]	< 200	5000 to 10000	< 200	< 50		
FC1(F)Oc2cc3c(cc2O1)NC1(CCCCC1)C(NCc1ccccc1)=N3 [C-256]	< 200	20000 to 50000	< 100	< 50		
NC1CCC2(CC1)Nc1ccccc1N=C2NCc1ccccc1 (centres unmarked) [C-257]	< 500	2000 to 5000	< 200	< 100		
Clc1ccc2c(c1)N=C(NCc1ccccc1)C1(CCCCC1)N2 [C-258]	< 500	10000 to 20000	< 200	< 50		
FC(F)(F)c1ccc2c(c1)N=C(NCc1ccccc1)C1(CCCCC1)N2 [C-259]	< 500	5000 to 10000	< 500	< 100		
FC(F)(F)c1cccc(CNC2=Nc3cc(Cl)c(Cl)cc3NC23CCCCCC3)c1 [C-260]	< 500	5000 to 10000	< 200	< 50		
FC(F)(F)c1cccc(CNC2=Nc3ccccc3NC23CCCCCC3)c1 [C-261]	< 500	10000 to 20000	< 500	< 50		
Cc1cc(C)cc(CNC2=Nc3cc(Cl)c(Cl)cc3NC23CCCCCC3)c1 [C-262]	< 500	10000 to 20000	< 500	< 100		
Cc1cccc2c1NC1(CCCCC1)C(NCc1ccccc1)=N2 [C-263]	< 500	10000 to 20000	< 500	< 50		

Compound	IC50 [1, 5] [nM]	CC50 [2] [nM]	IC50 [3] [nM]	IC50 [4, 6] [nM]	IC50 ([1]; glutamate 5 mM, 72 hours, cell survival, read-out: Ht22/GLU (Example B.2) IC50) [nM]	IC50 ([4]; BSO 50 μM, cell survival (AquaBluer), read-out: SH-SY5Y/BSO (Example B.1) IC50) [nM]
FC(F)(F)c1cccc(CNC2=Nc3cc(Cl)c(Cl)cc3NC23CCCCC3)c1 [C-264]	< 500	10000 to 20000	< 500	< 50		
Fc1ccc(CNC2=Nc3cc(Cl)c(Cl)cc3NC23CCCCC3)c(F)c1 [C-265]	< 500	10000 to 20000	< 500	< 50		
Fc1cccc(F)c1CNC1=Nc2ccccc2NC12CCCCCC2 [C-266]	< 500	10000 to 20000	< 500	< 100		
Cc1cccc(CNC2=Nc3cc(Cl)c(Cl)cc3NC23CCCCCC3)c1 [C-267]	< 500	10000 to 20000	< 200	< 100		
Clc1ccc(CNC2=Nc3ccccc3NC23CCNCC3)cc1 [N-3]	< 50	5000 to 10000	< 10	< 50		
Cc1ccccc1CNC1=Nc2ccccc2NC12CCNCC2 [N-10]	< 50	5000 to 10000	< 100	< 20	10 to 50	~5
FC(F)(F)c1cccc(CNC2=Nc3ccccc3NC23CCNCC3)c1 [N-23]	< 50	20000 to 50000	< 50	< 20		
Fc1cc(Cl)ccc1CNC1=Nc2ccccc2NC12CCNCC2 [N-61]	< 50	20000 to 50000	< 50	< 50		
CN1CCC2(CC1)Nc1ccccc1N=C2NCc1cccc(Cl)c1 [N-90]	< 200	10000 to 20000	< 20	< 50		
CC(=O)N1CCC2(CC1)Nc1ccccc1N=C2NCc1cccc(Cl)c1 [N-99]	< 1000	50000 to 100000	< 1000	< 200		
Fc1cc2c(cc1F)NC1(CCNCC1)C(NCc1cccc(Cl)c1)=N2 [N-117]	< 50	1000 to 2000	< 50	< 10		
CN1CCC2(CC1)Nc1ccccc1N=C2NCc1ccccc1 [N-204]	< 500	20000 to 50000	< 500	< 50		
Clc1cc2c(cc1Cl)NC1(CCNCC1)C(NCc1ccccc1)=N2 [N-205]	< 50	1000 to 2000	< 10	< 20		
Cc1cc2c(cc1C)NC1(CCNCC1)C(NCc1ccccc1)=N2 [N-210]	< 50	2000 to 5000	< 10	< 50		
Cc1cc(C)cc(CNC2=Nc3ccccc3NC23CCNCC3)c1 [N-217]	< 50	20000 to 50000	< 100	< 50		
Clc1cccc(CNC2=Nc3cc4c(cc3NC23CCNCC3)OCCO4)c1 [N-219]	< 1000	20000 to 50000	< 1000	< 500		
c1ccc(C(CNC2=Nc3ccccc3NC23CCNCC3)c2ccccc2)cc1 [N-220]	< 20	2000 to 5000	< 50	< 50		
Fc1cc2c(cc1F)NC1(CCNCC1)C(NCc1ccccc1)=N2 [N-223]	< 50	20000 to 50000	< 50	< 50		
CN1CCC2(CC1)Nc1cc(Cl)c(Cl)cc1N=C2NCc1ccccc1 [N-230]	< 10	500 to 1000	< 10	< 10		
